One test concerns the target Adenosine A3 (Homo sapiens (Human), UniProt P0DMS8). Nature of the test: Radioligand binding assay No. 200720. The settings on record: test substance 10 μM, read-out: Inhibitory rate (%), Adenosine A3.
A further test deals with Adrenergic α1A (Rattus norvegicus (Rat), UniProt P43140). Nature of the test: Radioligand binding assay No. 203100. As to conditions: test substance 10 μM, read-out: Inhibitory rate (%), Adrenergic α1A.
In the next test the target is Endothelin ETA (Homo sapiens (Human), UniProt P25101). Nature of the test: Radioligand binding assay No. 224010. As to conditions: test substance 10 μM, read-out: Inhibitory rate (%), Endothelin ETA.
Chain of Endothelin ETA (P25101 21-427): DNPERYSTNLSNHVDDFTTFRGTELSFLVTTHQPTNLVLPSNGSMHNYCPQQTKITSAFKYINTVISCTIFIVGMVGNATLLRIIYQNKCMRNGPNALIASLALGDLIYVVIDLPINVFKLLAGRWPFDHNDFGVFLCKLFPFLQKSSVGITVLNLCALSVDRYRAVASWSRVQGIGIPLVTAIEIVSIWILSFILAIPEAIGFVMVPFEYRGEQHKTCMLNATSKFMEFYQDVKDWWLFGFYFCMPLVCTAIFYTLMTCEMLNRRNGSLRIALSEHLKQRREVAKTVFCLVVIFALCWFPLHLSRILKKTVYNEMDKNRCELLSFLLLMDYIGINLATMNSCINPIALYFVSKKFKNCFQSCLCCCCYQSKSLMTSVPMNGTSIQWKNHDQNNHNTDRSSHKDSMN
In a further test the target is Estrogen ERα (Homo sapiens (Human), UniProt P03372). Briefly: Radioligand binding assay No. 226010. As to conditions: test substance 10 μM, read-out: Inhibitory rate (%), Estrogen ERα.
Chain of Estrogen ERα (P03372 whole entry): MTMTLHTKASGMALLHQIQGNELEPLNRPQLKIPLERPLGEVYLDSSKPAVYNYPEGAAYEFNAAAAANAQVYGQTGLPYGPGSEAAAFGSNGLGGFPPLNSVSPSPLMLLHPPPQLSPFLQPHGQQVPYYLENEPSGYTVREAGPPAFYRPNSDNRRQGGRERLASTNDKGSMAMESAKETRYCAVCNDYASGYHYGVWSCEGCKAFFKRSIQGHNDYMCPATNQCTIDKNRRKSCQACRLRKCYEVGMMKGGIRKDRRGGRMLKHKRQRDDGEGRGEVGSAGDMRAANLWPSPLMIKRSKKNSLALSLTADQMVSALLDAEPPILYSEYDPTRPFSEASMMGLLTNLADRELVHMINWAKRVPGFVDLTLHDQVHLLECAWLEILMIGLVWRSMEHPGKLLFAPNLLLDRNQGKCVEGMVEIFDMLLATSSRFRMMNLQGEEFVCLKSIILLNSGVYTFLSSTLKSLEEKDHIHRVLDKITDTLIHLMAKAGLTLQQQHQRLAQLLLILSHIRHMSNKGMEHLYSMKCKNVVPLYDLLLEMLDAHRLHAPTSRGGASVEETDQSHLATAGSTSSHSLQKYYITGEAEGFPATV
A further test has as its target Glucocorticoid (Homo sapiens (Human), UniProt P04150). Nature of the test: Radioligand binding assay No. 232030. The settings on record: test substance 10 μM, read-out: Inhibitory rate (%), Glucocorticoid.
For another test, the target named is Histamine H2 (Homo sapiens (Human), UniProt P25021). Briefly: Radioligand binding assay No. 239710. As to conditions: test substance 10 μM, read-out: Inhibitory rate (%), Histamine H2.
Chain of Histamine H2 (P25021 whole entry): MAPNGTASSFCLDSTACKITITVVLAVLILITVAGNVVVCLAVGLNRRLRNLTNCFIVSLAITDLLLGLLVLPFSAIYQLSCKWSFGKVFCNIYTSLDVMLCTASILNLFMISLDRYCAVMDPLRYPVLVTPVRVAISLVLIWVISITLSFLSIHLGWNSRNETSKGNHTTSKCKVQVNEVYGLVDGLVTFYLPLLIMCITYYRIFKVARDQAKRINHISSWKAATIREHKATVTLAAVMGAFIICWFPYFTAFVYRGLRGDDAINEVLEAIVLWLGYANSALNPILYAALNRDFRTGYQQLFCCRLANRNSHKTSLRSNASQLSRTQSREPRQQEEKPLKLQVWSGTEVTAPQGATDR
A further test concerns the target Muscarinic M1 (Homo sapiens (Human), UniProt P11229). Nature of the test: Radioligand binding assay No. 252610. The settings on record: test substance 10 μM, read-out: Inhibitory rate (%), Muscarinic M1.
A further test deals with Neuropeptide Y Y2 (Homo sapiens (Human), UniProt P49146). Nature of the test: Radioligand binding assay No. 257110. The settings on record: test substance 10 μM, read-out: Inhibitory rate (%), Neuropeptide Y Y2.
Chain of Neuropeptide Y Y2 (P49146 whole entry): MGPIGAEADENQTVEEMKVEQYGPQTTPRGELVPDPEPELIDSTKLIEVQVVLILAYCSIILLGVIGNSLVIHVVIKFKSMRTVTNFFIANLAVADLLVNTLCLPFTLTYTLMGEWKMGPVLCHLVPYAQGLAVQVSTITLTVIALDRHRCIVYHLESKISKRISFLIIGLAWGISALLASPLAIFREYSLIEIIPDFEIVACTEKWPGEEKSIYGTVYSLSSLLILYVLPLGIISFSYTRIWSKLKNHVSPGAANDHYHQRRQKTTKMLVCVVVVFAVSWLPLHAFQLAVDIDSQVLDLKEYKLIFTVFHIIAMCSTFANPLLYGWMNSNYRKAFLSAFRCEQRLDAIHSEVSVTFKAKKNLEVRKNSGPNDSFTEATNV
The subject of another test is Nicotinic Acetylcholine. Nature of the test: Radioligand binding assay No. 258590. The settings on record: test substance 10 μM; Human.
The target in the next test is Opiate δ1 (OP1, DOP) (Homo sapiens (Human), UniProt P41143). Briefly: Radioligand binding assay No. 260130. As to conditions: test substance 10 μM, read-out: Inhibitory rate (%), Opiate δ1 (OP1, DOP).
Chain of Opiate δ1 (OP1, DOP) (P41143 whole entry): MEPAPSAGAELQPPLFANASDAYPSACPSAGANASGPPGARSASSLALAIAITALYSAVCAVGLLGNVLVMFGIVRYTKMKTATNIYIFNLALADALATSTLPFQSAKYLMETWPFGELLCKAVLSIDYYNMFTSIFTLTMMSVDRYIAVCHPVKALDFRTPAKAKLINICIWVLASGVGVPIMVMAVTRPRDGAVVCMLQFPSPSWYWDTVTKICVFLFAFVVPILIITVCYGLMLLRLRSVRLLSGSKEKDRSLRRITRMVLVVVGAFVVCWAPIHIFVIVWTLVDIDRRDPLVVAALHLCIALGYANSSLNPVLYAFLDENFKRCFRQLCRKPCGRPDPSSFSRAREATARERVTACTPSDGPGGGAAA
Test [1] addresses Serotonin (5-Hydroxytryptamine) 5-HT1A (Homo sapiens (Human), UniProt P08908). Briefly: Radioligand binding assay No. 271110. As to conditions: test substance 10 μM, read-out: Inhibitory rate (%), Serotonin (5-Hydroxytryptamine) 5-HT1A.
The subject of the next test is Sodium Channel, Site2. Nature of the test: Radioligand binding assay No. 279510. As to conditions: test substance 10 μM; rat.
The next test relates to Transporter, GABA. Nature of the test: Radioligand binding assay No. 226400. As to conditions: test substance 10 μM; rat.
The target of another test is mTOR (Homo sapiens (Human), UniProt P42345). Briefly: mTOR enzymatic assay. Format: biochemical. As to conditions: read-out: In vitro enzymatic activity (IC50) mTOR. The protocol:
Assay 1-2: In Vitro Enzymatic Inhibitory Activity of the Present Compound
1. Preparation of Agents:
• 1.1 1-fold kinase buffer: 50 mM HEPES, pH 7.5, 10 mM MgCl2, 1 mM EGTA, 3 mM MnCl2, 0.01% Tween-20, 2 mM DTT; • 1.2 4-fold kinase solution: mTOR kinase was added to 1-fold kinase buffer to form 4-fold kinase solution with a final concentration of 2.5 nM; • 1.3 2-fold substrate and ATP solution: the substrate 4EBP1 and ATP were added to 1-fold kinase buffer to form 2-fold substrate solution with final concentration of 50 nM of 4EBP1 and 10.8 μM of ATP; • 1.4 4-fold test substance solutions: 100-fold test substance solutions in different gradient concentrations were formulated with 100% DMSO, and diluted by 25 folds with 1-fold kinase buffer to form 4-fold test substance solutions in different gradient concentrations. • 1.5 Preparation of detection solution: a detection solution containing 2-fold final concentrations of EDTA and 4EBP1 phosphorylated antibody was formulated, wherein the final concentration for EDTA was 8 mM, and the final concentration for the 4EBP phosphorylated antibody was 2 nM. 2. Procedure • 2.1 To each well of a 384-well plate was added 2.5 μL of the 4-fold test substance solutions in gradient concentrations. The replication was made. • 2.2 To each well was added 2.5 μL of 4-fold kinase solution, and then the plate was incubated for 10 mins; • 2.3 Then to each well was added 5 μL/of 2-fold substrate and ATP solution, and then the plate was incubated at room temperature for 1 hour; • 2.4 Finally, 10 μL of the detection solution was added to terminate the reaction. After 60 mins, the data Lance signal ([…]) was read from Envision. 3 Data treatment Inhibition rate (%)=[…] • wherein: • maximum refers to the reading at the DMSO control well. • minimum refers to the reading at the control well without kinase, • The data was input into Graphpad Prism 5.0 to plot and obtain the curve and IC50 value. PI3Kα Enzymatic Assay 1. […] After 15 mins, the data Lance signal ([…]) was read from Envision. 3 Data treatment Inhibition rate (%)=100−(sample value−minimum)/(maximum−minimum)×100 • wherein: • maximum refers to the reading at the control well without kinase, • minimum refers to the reading at the DMSO control well, • The data was input into Graphpad Prism 5.0 to plot and obtain the curve and IC50 value. […]

Chain of Glucocorticoid (P04150 whole entry): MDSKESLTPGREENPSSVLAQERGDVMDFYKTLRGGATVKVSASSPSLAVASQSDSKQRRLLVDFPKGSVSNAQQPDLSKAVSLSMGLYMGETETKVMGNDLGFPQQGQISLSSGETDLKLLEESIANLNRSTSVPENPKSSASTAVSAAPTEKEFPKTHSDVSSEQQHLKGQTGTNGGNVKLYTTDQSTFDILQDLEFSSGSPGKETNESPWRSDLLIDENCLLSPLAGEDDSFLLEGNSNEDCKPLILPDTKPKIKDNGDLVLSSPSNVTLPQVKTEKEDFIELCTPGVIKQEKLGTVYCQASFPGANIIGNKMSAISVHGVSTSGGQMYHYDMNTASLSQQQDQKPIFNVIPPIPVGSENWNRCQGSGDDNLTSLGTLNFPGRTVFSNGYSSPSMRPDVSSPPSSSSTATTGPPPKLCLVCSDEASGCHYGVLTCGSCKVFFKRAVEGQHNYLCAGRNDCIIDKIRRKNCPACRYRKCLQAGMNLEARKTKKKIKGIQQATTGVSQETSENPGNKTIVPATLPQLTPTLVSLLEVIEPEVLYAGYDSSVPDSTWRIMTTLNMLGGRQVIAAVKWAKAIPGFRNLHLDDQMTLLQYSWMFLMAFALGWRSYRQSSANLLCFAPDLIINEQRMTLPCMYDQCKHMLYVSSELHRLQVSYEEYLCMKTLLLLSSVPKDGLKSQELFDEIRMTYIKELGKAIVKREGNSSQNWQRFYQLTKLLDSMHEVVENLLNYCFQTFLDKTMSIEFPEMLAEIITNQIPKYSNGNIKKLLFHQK
Chain of Adenosine A3 (P0DMS8 whole entry): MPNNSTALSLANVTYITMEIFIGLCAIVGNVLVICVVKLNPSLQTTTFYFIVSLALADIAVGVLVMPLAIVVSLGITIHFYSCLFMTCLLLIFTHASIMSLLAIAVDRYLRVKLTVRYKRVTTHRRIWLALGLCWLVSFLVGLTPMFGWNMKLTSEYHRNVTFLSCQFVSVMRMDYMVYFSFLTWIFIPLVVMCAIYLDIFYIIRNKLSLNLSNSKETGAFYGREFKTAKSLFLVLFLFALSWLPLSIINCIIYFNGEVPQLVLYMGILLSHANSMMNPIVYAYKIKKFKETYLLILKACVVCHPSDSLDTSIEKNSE
Chain of Adrenergic α1A (P43140 whole entry): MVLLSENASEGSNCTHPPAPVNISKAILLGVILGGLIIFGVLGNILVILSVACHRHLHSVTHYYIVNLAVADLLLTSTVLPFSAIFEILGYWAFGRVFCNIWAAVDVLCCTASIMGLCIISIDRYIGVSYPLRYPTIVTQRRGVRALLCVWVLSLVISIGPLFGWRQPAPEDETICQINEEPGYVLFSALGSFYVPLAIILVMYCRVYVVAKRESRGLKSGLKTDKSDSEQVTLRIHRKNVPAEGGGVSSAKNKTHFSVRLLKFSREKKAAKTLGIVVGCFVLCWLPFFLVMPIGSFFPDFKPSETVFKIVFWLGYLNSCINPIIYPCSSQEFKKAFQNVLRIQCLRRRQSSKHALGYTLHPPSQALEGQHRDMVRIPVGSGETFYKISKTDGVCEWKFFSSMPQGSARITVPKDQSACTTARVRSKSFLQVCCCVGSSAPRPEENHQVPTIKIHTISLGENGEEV
Chain of Muscarinic M1 (P11229 whole entry): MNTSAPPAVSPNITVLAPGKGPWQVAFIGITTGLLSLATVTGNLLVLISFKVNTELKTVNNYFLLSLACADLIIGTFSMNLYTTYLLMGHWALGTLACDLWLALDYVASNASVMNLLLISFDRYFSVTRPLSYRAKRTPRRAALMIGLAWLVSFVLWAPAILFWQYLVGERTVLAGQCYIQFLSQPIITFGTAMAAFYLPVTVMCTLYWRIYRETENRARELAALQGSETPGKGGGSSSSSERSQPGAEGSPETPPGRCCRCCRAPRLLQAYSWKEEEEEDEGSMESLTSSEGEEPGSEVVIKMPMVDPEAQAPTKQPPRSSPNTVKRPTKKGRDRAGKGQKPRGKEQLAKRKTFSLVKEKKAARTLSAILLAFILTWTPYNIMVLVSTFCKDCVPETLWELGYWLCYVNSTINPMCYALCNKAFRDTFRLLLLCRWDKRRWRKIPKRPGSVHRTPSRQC
Chain of Serotonin (5-Hydroxytryptamine) 5-HT1A (P08908 whole entry): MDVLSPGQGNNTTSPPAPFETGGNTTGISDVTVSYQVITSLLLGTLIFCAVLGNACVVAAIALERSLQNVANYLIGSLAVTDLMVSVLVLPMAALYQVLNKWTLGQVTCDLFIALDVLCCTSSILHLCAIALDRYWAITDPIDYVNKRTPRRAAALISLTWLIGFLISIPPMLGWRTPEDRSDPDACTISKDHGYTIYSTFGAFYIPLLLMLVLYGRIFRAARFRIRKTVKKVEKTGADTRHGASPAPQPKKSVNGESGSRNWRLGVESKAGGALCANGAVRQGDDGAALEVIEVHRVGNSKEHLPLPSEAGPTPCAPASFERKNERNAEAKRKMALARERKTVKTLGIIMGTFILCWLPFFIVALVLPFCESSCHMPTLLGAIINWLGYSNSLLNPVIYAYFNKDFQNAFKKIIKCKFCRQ

As for `Nc1ccc(-c2ccc3ncc4c(=O)[nH]c(=O)n(-c5cccc(C(F)(F)F)c5)c4c3n2)cn1` [Compound 5, 9-(6-aminopyridin-3-yl)-1-(3-(trifluoromethyl)phenyl)pyrimido[5,4-c][1,5]naphthyridine-2,4(1H,3H)-dione], the inhibition at 10 µM on Adenosine A3 was 11%; at Adrenergic α1A, 13%; at Endothelin ETA it was 3%; on Estrogen ERα, 17%; on Glucocorticoid, -4%; at Histamine H2, -2%. The inhibition at 10 µM on Muscarinic M1 stood at 18%; on Neuropeptide Y Y2, 10%; on Opiate δ1 (OP1, DOP) it was 4%; in test [1], 25%. The “Inhibitory rate (%), Nicotinic Acetylcholine” value in the test on Nicotinic Acetylcholine was 7%. Moreover, the “Inhibitory rate (%), Sodium Channel, Site2” value with Sodium Channel, Site2 was determined as 7%. Also, the “Inhibitory rate (%), Transporter, GABA” value in the test with Transporter, GABA is recorded as 12%.

Regarding `O=c1[nH]c(=O)n(-c2cccc(C(F)(F)F)c2)c2c1cnc1ccc(-c3cnc4[nH]ccc4c3)nc12` [Compound 30, 9-(1H-pyrrolo[2,3-b]pyridin-5-yl)-1-(3-(trifluoromethyl)phenyl)pyrimido[5,4-c][1,5]naphthyridine-2,4(1H,3H)-dione], the IC50 (as a rule, the concentration needed to halve the response being measured) at mTOR worked out at 1.12 nM.
